How the values were obtained:
blackgrass = test: Test B pre/postemergence blackgrass; assay type: in vivo, Alopecurus myosuroides
Summary of the method: (§1)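 Herbicidal effect was estimated by eye on a ten-point control scale after plants spent twelve to sixteen days in a greenhouse following soil or foliar treatment. Foliar sprays targeted plants at one to four leaves; all doses were formulated in a non-phytotoxic solvent with surfactant.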

morningglory = test: Test B pre/postemergence morningglory; assay type: in vivo, Ipomoea hederacea
Summary of the method: as §1

velvetleaf = test: Test B pre/postemergence velvetleaf; assay type: in vivo, Abutilon theophrasti
Summary of the method: as §1

purple nutsedge = test: Test B pre/postemergence purple nutsedge; assay type: in vivo, Cyperus rotundus
Summary of the method: as §1

giant foxtail = test: Test B pre/postemergence giant foxtail; assay type: in vivo, Setaria faberii
Summary of the method: as §1

wheat = test: Test B pre/postemergence wheat; assay type: in vivo, Triticum aestivum
Summary of the method: as §1

wild oat = test: Test B pre/postemergence wild oat; assay type: in vivo, Avena fatua
Summary of the method: as §1

crabgrass = test: Test B pre/postemergence crabgrass; assay type: in vivo, Digitaria sanguinalis
Summary of the method: as §1

soybean = test: Test B pre/postemergence soybean; assay type: in vivo, Glycine max
Summary of the method: as §1

cocklebur = test: Test B pre/postemergence cocklebur; assay type: in vivo, Xanthium strumarium
Summary of the method: as §1

corn = test: Test B pre/postemergence corn; assay type: in vivo, Zea mays
Summary of the method: as §1

rice = test: Test B flood test rice; assay type: in vivo, Oryza sativa
Summary of the method: (§2)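 Each value is a visual injury score relative to controls, with 10 meaning complete control and 0 no effect. Evaluation took place twelve to sixteen days after the 2-leaf-stage plants were treated and kept in the greenhouse.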

smallflower flatsedge = test: Test B flood test smallflower flatsedge; assay type: in vivo, Cyperus difformis
Summary of the method: as §2

duck salad = test: Test B flood test duck salad; assay type: in vivo, Heteranthera limosa
Summary of the method: as §2

rape = test: Test B pre/postemergence rape; assay type: in vivo, Brassica napus
Summary of the method: as §1

surinam grass = test: Test B pre/postemergence surinam grass; assay type: in vivo, Brachiaria decumbens
Summary of the method: as §1

pigweed = test: Test B pre/postemergence pigweed; assay type: in vivo, Amaranthus retroflexus
Summary of the method: as §1

sugar beet = test: Test B pre/postemergence sugar beet; assay type: in vivo, Beta vulgaris
Summary of the method: as §1

bamyardgrass = test: Test B flood test barnyardgrass; assay type: in vivo, Echinochloa crus-galli
Summary of the method: as §2

[1] = Postemergence, Rate 62 g/ha, scale 0 to 10, 0 is no effect, 10 is complete control
[2] = Postemergence, Rate 125 g/ha, scale of 0 to 10 where 0 is no effect and 10 is complete control
[3] = Postemergence, Rate 250 g/ha, scale of 0 to 10, 0 is no effect, 10 is complete control
[4] = Postemergence, Rate 500 g/ha, scale of 0 to 10 where 0 is no effect and 10 is complete control
[5] = Preemergence, Rate 62 g/ha, scale of 0 to 10 where 0 is no effect and 10 is complete control
[6] = Preemergence, Rate 125 g/ha, scale of 0 to 10 where 0 is no effect and 10 is complete control
[7] = Preemergence, Rate 250 g/ha, scale 0 to 10 (0 no effect, 10 complete control)
[8] = Preemergence, Rate 500 g/ha, scale of 0 to 10 where 0 is no effect and 10 is complete control
[9] = Rate 62 g/ha, flood test species, Pre-emergence, visual evaluation after twelve to sixteen days
[10] = Rate 125 g/ha, under heading Pre-emergence, flood test species, visual evaluation after twelve to sixteen days
[11] = Rate 250 g/ha, Pre-emergence (flood test species), scale 0 to 10, 0 is no effect, 10 is complete control
[12] = Rate 500 g/ha, Pre-emergence section of Table B, 0 to 10 scale (0 no effect, 10 complete control)

CC(C)N(C(=O)n1oc(=O)n(CC(=O)C2CCC2)c1=O)c1ccccc1 [Compound 641]
Plant response rating, Blackgrass (blackgrass; [1]): 0
Plant response rating, Blackgrass (blackgrass; [2]): 0
Blackgrass plant response rating (blackgrass; [3]): 2
Plant response rating, Blackgrass (blackgrass; [4]): 6
Blackgrass plant response rating (blackgrass; [5]): 0
Blackgrass plant response rating (blackgrass; [6]): 0
Plant response rating, Blackgrass (blackgrass; [7]): 2
Plant response rating, Blackgrass (blackgrass; [8]): 8
Plant response rating, Morningglory (morningglory; [1]): 0
Plant response rating, Morningglory (morningglory; [2]): 1
Morningglory plant response rating (morningglory; [3]): 7
Plant response rating, Morningglory (morningglory; [4]): 9
Morningglory plant response rating (morningglory; [5]): 0
Morningglory plant response rating (morningglory; [6]): 0
Plant response rating, Morningglory (morningglory; [7]): 0
Plant response rating, Morningglory (morningglory; [8]): 0
Plant response rating, Velvetleaf (velvetleaf; [1]): 0
Plant response rating, Velvetleaf (velvetleaf; [2]): 0
Velvetleaf plant response rating (velvetleaf; [3]): 0
Velvetleaf plant response rating (velvetleaf; [5]): 0
Velvetleaf plant response rating (velvetleaf; [6]): 0
Plant response rating, Velvetleaf (velvetleaf; [7]): 0
Plant response rating, Velvetleaf (velvetleaf; [8]): 0
Plant response rating, Nutsedge (purple nutsedge; [1]): 0
Plant response rating, Nutsedge (purple nutsedge; [2]): 0
Nutsedge plant response rating (purple nutsedge; [3]): 4
Nutsedge plant response rating (purple nutsedge; [5]): 0
Nutsedge plant response rating (purple nutsedge; [6]): 0
Plant response rating, Nutsedge (purple nutsedge; [7]): 0
Plant response rating, Nutsedge (purple nutsedge; [8]): 3
Plant response rating, Giant foxtail (giant foxtail; [1]): 0
Plant response rating, Giant foxtail (giant foxtail; [2]): 0
Giant foxtail plant response rating (giant foxtail; [3]): 3
Plant response rating, Giant foxtail (giant foxtail; [4]): 6
Giant foxtail plant response rating (giant foxtail; [5]): 5
Giant foxtail plant response rating (giant foxtail; [6]): 9
Plant response rating, Giant foxtail (giant foxtail; [7]): 9
Plant response rating, Giant foxtail (giant foxtail; [8]): 9
Plant response rating, Wheat (wheat; [1]): 0
Plant response rating, Wheat (wheat; [2]): 0
Wheat plant response rating (wheat; [3]): 0
Wheat plant response rating (wheat; [5]): 0
Wheat plant response rating (wheat; [6]): 0
Plant response rating, Wheat (wheat; [7]): 0
Plant response rating, Wheat (wheat; [8]): 0
Plant response rating, Wild oats (wild oat; [1]): 0
Plant response rating, Wild oats (wild oat; [2]): 1
Wild oats plant response rating (wild oat; [3]): 1
Wild oats plant response rating (wild oat; [5]): 0
Wild oats plant response rating (wild oat; [6]): 0
Plant response rating, Wild oats (wild oat; [7]): 0
Plant response rating, Wild oats (wild oat; [8]): 5
Plant response rating, Crabgrass (crabgrass; [1]): 0
Plant response rating, Crabgrass (crabgrass; [2]): 0
Crabgrass plant response rating (crabgrass; [3]): 3
Plant response rating, Crabgrass (crabgrass; [4]): 6
Crabgrass plant response rating (crabgrass; [5]): 0
Crabgrass plant response rating (crabgrass; [6]): 3
Plant response rating, Crabgrass (crabgrass; [7]): 7
Plant response rating, Crabgrass (crabgrass; [8]): 9
Plant response rating, Soybean (soybean; [1]): 0
Plant response rating, Soybean (soybean; [2]): 0
Soybean plant response rating (soybean; [3]): 1
Soybean plant response rating (soybean; [5]): 0
Soybean plant response rating (soybean; [6]): 0
Plant response rating, Soybean (soybean; [7]): 0
Plant response rating, Soybean (soybean; [8]): 0
Plant response rating, Cocklebur (cocklebur; [1]): 0
Plant response rating, Cocklebur (cocklebur; [2]): 0
Cocklebur plant response rating (cocklebur; [3]): 0
Plant response rating, Cocklebur (cocklebur; [4]): 0
Cocklebur plant response rating (cocklebur; [5]): 0
Cocklebur plant response rating (cocklebur; [6]): 0
Plant response rating, Cocklebur (cocklebur; [7]): 0
Plant response rating, Cocklebur (cocklebur; [8]): 0
Plant response rating, Corn (corn; [1]): 0
Plant response rating, Corn (corn; [2]): 0
Corn plant response rating (corn; [3]): 0
Plant response rating, Corn (corn; [4]): 0
Corn plant response rating (corn; [5]): 0
Plant response rating, Corn (corn; [7]): 0
Plant response rating, Corn (corn; [8]): 2
Plant response rating, Rice (0 to 10 scale, 0 is no effect, 10 is complete control) (rice; [9]): 0
Rice plant response rating (0 to 10 scale, 0 is no effect, 10 is complete control) (rice; [10]): 0
Rice plant response rating (rice; [11]): 0
Rice plant response rating (rice; [12]): 0
Plant response rating, S. Flatsedge (0 to 10 scale, 0 is no effect, 10 is complete control) (smallflower flatsedge; [9]): 0
S. Flatsedge plant response rating (0 to 10 scale, 0 is no effect, 10 is complete control) (smallflower flatsedge; [10]): 0
S. Flatsedge plant response rating (smallflower flatsedge; [11]): 0
S. Flatsedge plant response rating (smallflower flatsedge; [12]): 0
Plant response rating, Ducksalad (0 to 10 scale, 0 is no effect, 10 is complete control) (duck salad; [9]): 0
Ducksalad plant response rating (0 to 10 scale, 0 is no effect, 10 is complete control) (duck salad; [10]): 0
Ducksalad plant response rating (duck salad; [11]): 0
Ducksalad plant response rating (duck salad; [12]): 0
Plant response rating, Rape (rape; [1]): 0
Plant response rating, Rape (rape; [2]): 0
Rape plant response rating (rape; [3]): 0
Plant response rating, Rape (rape; [4]): 0
Rape plant response rating (rape; [5]): 0
Plant response rating, Rape (rape; [8]): 0
Plant response rating, B. signalgrass (surinam grass; [1]): 0
Plant response rating, B. signalgrass (surinam grass; [2]): 0
B. signalgrass plant response rating (surinam grass; [3]): 0
Plant response rating, B. signalgrass (surinam grass; [4]): 4
B. signalgrass plant response rating (surinam grass; [5]): 0
B. signalgrass plant response rating (surinam grass; [6]): 0
Plant response rating, B. signalgrass (surinam grass; [7]): 6
Plant response rating, B. signalgrass (surinam grass; [8]): 8
Plant response rating, Redroot pigweed (pigweed; [2]): 0
Redroot pigweed plant response rating (pigweed; [3]): 3
Redroot pigweed plant response rating (pigweed; [5]): 0
Redroot pigweed plant response rating (pigweed; [6]): 0
Plant response rating, Redroot pigweed (pigweed; [7]): 0
Plant response rating, Redroot pigweed (pigweed; [8]): 7
Plant response rating, Sugarbeets (sugar beet; [1]): 0
Plant response rating, Sugarbeets (sugar beet; [2]): 0
Sugarbeets plant response rating (sugar beet; [3]): 0
Sugarbeets plant response rating (sugar beet; [5]): 0
Sugarbeets plant response rating (sugar beet; [6]): 0
Plant response rating, Sugarbeets (sugar beet; [7]): 0
Plant response rating, Sugarbeets (sugar beet; [8]): 0
Plant response rating, Barnyardgrass (0 to 10 scale, 0 is no effect, 10 is complete control) (bamyardgrass; [9]): 0
Barnyardgrass plant response rating (0 to 10 scale, 0 is no effect, 10 is complete control) (bamyardgrass; [10]): 0
Barnyardgrass plant response rating (bamyardgrass; [11]): 0
Barnyardgrass plant response rating (bamyardgrass; [12]): 0

Source: patent US6737383B1, “Herbicidal oxadiazolidines” (priority 1999, dated 2004)
